Experimental data: patent US20260285801A1, “LIPID NANOPARTICLE FOR TARGETED DELIVERY OF THERAPEUTIC PAYLOADS” (Trustees of Tufts College, priority 2023, published 2026)

Columns and labels:
[1] = Encapsulation efficiency and mRNA quantity by Ribogreen fluorescence plate assay; format: physicochemical; details: LNP with mRNA payload formulated with the lipid, 16.8/4.0/2.0/1.0, Lipids:mRNA 25:1; for EE %: (total RNA - unencapsulated RNA)/total RNA
Experimental: (§1) RNA working solutions (0.134 mg/ml) were prepared in 25 mM sodium acetate buffer using DNase/RNase-free distilled water. Lipid stock solutions (10 mg/mL) were freshly prepared with active lipids or helper lipids (e.g., cholesterol, DOPC or DSPC, or ALC-0159) in ethanol. Reagents were mixed by vortexing and sonicating until the lipids were completely dissolved. A lipid mixture was first prepared by combining the active lipids (e.g., ionizable lipids of the present disclosure) and helper lipids into one vial and mixing thoroughly. Lipid nanoparticles were then formed by mixing the RNA working solution (0.134 mg/ml) and the lipid mixture at 3:1 volume ratio, either manually (for smaller scale) or by Precision Igniter microfluidic device. The formulation solution was transferred into a 300 kDa MWCO Float-A-Lyzer G2 Dialysis Device and dialyzed against at least 1000-folds volume of 50 mM Tris buffer overnight at 4° C. The LNP solution was sterilized with a 0.22 μm filter.
(§2) For LNP characterization, size and polydispersity index (PDI) were determined by dynamic light scattering using a Zetasizer Nano ZS. 10 μL of LNP suspension was transferred to a low-volume cuvette containing 900 μL of Ca^2+ and Mg^2+ free PBS at pH 7.4. Refractive index was set to […] and temperature was set to 25° C. Encapsulation efficiency (EE %) was measured using a fluorescence plate-based assay employing the Ribogreen reagent (Invitrogen) as per PNI Ribogreen assay protocol 16. This assay measures the quantity of mRNA in samples with intact LNPs to determine the quantity of unencapsulated RNA as well as in LNP samples disrupted by triton X-100 to measure the total RNA. EE % is calculated as the difference between the total RNA and the unencapsulated RNA divided by the total RNA.

[2] = LNP size and polydispersity index by dynamic light scattering (Zetasizer Nano ZS); format: physicochemical; details: LNP with mRNA payload formulated with the lipid; active lipid/Cholesterol/DOPC/DMG-PEG 16.8/4.0/2.0/1.0; Lipids:mRNA 25:1; PBS pH 7.4, 25° C.
Experimental: as §1, §2

[mRNA] Ug/ml [1] [Ug/ml] | EE % [1] [%] | PDI [2] | Size (nm) [2] [nm] | Compound
71.22 | 98.92 | 0.22 | 124.4 | CCCCCCC(CCCC)COC(=O)OCCOC(=O)CCN(CCCN(CCCN(CCC(=O)OCCOC(=O)OCC(CCCC)CCCCCC)CCC(=O)OCCOC(=O)OCC(CCCC)CCCCCC)CCCN1CCN(C)CC1)CCC(=O)OCCOC(=O)OCC(CCCC)CCCCCC (stereo not shown) [Lipid L0674]
65.1 | 95.7 | 0.22 | 121.5 | CCCCCCCCC(CCC)OC(=O)OCCOC(=O)CCN(CCC(=O)OCCOC(=O)OC(CCC)CCCCCCCC)CCN(C)CCN(CCC(=O)OCCOC(=O)OC(CCC)CCCCCCCC)CCC(=O)OCCOC(=O)OC(CCC)CCCCCCCC (stereo not shown) [Lipid L0638]
71 | 97 | 0.11 | 122.2 | CCCCCCCCCC(CC)OC(=O)OCCOC(=O)CCN(CCCN(C)CCCN(CCC(=O)OCCOC(=O)OC(CC)CCCCCCCCC)CCC(=O)OCCOC(=O)OC(CC)CCCCCCCCC)CCC(=O)OCCOC(=O)OC(CC)CCCCCCCCC (stereo not shown) [Lipid L0660]
66.8 | 94 | 0.34 | 186.1 | CCCCCCCCC(CCC)OC(=O)OCCOC(=O)CCN(CCCN(C)CCCN(CCC(=O)OCCOC(=O)OC(CCC)CCCCCCCC)CCC(=O)OCCOC(=O)OC(CCC)CCCCCCCC)CCC(=O)OCCOC(=O)OC(CCC)CCCCCCCC (stereo not shown) [Lipid L0637]
78 | 21.2 | 0.079 | 151.8 | CCC1CC1CCCCSSCCOC(=O)CCN(CCCN(C)CCCN(CCC(=O)OCCSSCCCCC1CC1CC)CCC(=O)OCCSSCCCCC1CC1CC)CCC(=O)OCCSSCCCCC1CC1CC (stereo not shown) [Lipid L0586]
77.3 | 97 | 0.19 | 101.7 | CCCCCCC(CCCC)COC(=O)OCCOC(=O)CCN(CCCN(CCCCO)CCCN(CCC(=O)OCCOC(=O)OCC(CCCC)CCCCCC)CCC(=O)OCCOC(=O)OCC(CCCC)CCCCCC)CCC(=O)OCCOC(=O)OCC(CCCC)CCCCCC (stereo not shown) [Lipid L0667]
 |  | 0.863 | 5911 | CCCCCCC(CCCC)CNC(=O)NCCNC(=O)CCN(CCCN(C)CCCN(CCC(=O)NCCNC(=O)NCC(CCCC)CCCCCC)CCC(=O)NCCNC(=O)NCC(CCCC)CCCCCC)CCC(=O)NCCNC(=O)NCC(CCCC)CCCCCC (stereo not shown) [Lipid L0775]
90.2 | 70 | 0.093 | 178.8 | CC(C)CCCCCCCCSSCCOC(=O)CCN(CCCN(C)CCCN(CCC(=O)OCCSSCCCCCCCCC(C)C)CCC(=O)OCCSSCCCCCCCCC(C)C)CCC(=O)OCCSSCCCCCCCCC(C)C [Lipid L0814]
65.6 | 90.6 | 0.1 | 119.4 | CCCCCCCC(CCCCCC)OC(=O)OCCOC(=O)CCN(CCCN(C)CCCN(CCC(=O)OCCOC(=O)OC(CCCCCC)CCCCCCC)CCC(=O)OCCOC(=O)OC(CCCCCC)CCCCCCC)CCC(=O)OCCOC(=O)OC(CCCCCC)CCCCCCC (stereo not shown) [Lipid L0654]
74.99 | 60.74 | 0.102 | 121.9 | CCC(C)CCCCCOC(=O)CCN(CCCN(C)CCCN(CCC(=O)OCCCCCC(C)CC)CCC(=O)OCCCCCC(C)CC)CCC(=O)OCCCCCC(C)CC (stereo not shown) [Lipid L0630]
88.88 | 45.59 | 0.105 | 122.2 | CCC(C)CCCCCOC(=O)CCN(CCC(=O)OCCCCCC(C)CC)CCN(C)CCN(CCC(=O)OCCCCCC(C)CC)CCC(=O)OCCCCCC(C)CC (stereo not shown) [Lipid L0631]
69.6 | 96.2 | 0.1 | 104.3 | CCCCCCCCCC(CC)OC(=O)OCCOC(=O)CCN(CCCN(C)CCCN(CCC(=O)OCCOC(=O)OC(CC)CCCCCCCCC)CCC(=O)OCCOC(=O)OC(CC)CCCCCCCCC)CCC(=O)OCCOC(=O)OC(CC)CCCCCCCCC (stereo not shown) [Lipid L0659]
